In ChEMBL document CHEMBL4616617, “Two Decades of Successful SAR-Grounded Stories of the Novel Bacterial Topoisomerase Inhibitors (NBTIs)” (J Med Chem, 2020):
Values belong to the compound of their own block, whether it stands above or below them.

Tests used:
Topoisomerase IV = Topoisomerase IV (Staphylococcus aureus, UniProt P0C1S7+P0C1U9); assay: Inhibition of Staphylococcus aureus RN4220 DNA topoisomerase 4 expressed in Escherichia coli BL21(DE3) cells using supercoiled pBR322 DNA as substrate by agarose gel electrophoresis method
[1] = Inhibition of Escherichia coli DNA topoisomerase 4 using supercoiled pBR322 DNA as substrate by agarose gel electrophoresis method
[2] = Inhibition of Staphylococcus aureus N-terminal His6-tagged DNA gyrase B expressed in Escherichia coli BL21(DE3) cells using relaxed pBR322 DNA as substrate incubated for 1 hr by agarose gel electrophoresis method
Staphylococcus aureus [3] = assay: Antibacterial activity against Staphylococcus aureus assessed as reduction in microbial growth after 18 hrs by NCCLS based method; format: functional
Escherichia coli [4] = assay: Antibacterial activity against Escherichia coli ATCC 25922 assessed as reduction in microbial growth by CLSI based broth microdilution method; format: functional
Staphylococcus aureus [5] = assay: Antibacterial activity against Staphylococcus aureus A798 assessed as reduction in microbial growth by CLSI based broth microdilution method; format: functional
Escherichia coli [6] = assay: Antibacterial activity against levofloxacin-susceptible Escherichia coli assessed as reduction in microbial growth by CLSI based broth microdilution method; format: functional
Escherichia coli [7] = assay: Antibacterial activity against levofloxacin-nonsusceptible Escherichia coli assessed as reduction in microbial growth by CLSI based broth microdilution method; format: functional
Staphylococcus aureus [8] = assay: Antibacterial activity against methicillin-sensitive Staphylococcus aureus assessed as reduction in microbial growth by CLSI based broth microdilution method; format: functional
Escherichia coli [9] = assay: Antibacterial activity against Escherichia coli assessed as reduction in microbial growth by CLSI based broth microdilution method; format: functional
Staphylococcus aureus [10] = assay: Antibacterial activity against Staphylococcus aureus assessed as reduction in microbial growth by CLSI based broth microdilution method; format: functional
Streptococcus pneumoniae [11] = assay: Antibacterial activity against penicillin-intermediate Streptococcus pneumoniae assessed as reduction in microbial growth by CLSI based broth microdilution method; format: functional
Staphylococcus aureus [12] = assay: Antibacterial activity against levofloxacin-resistant Staphylococcus aureus assessed as reduction in microbial growth by CLSI based broth microdilution method; format: functional
Streptococcus pneumoniae [13] = assay: Antibacterial activity against penicillin-susceptible Streptococcus pneumoniae assessed as reduction in microbial growth by CLSI based broth microdilution method; format: functional
Neisseria gonorrhoeae = assay: Antibacterial activity against Neisseria gonorrhoeae assessed as reduction in microbial growth by agar dilution method; format: functional
Haemophilus influenzae = assay: Antibacterial activity against Haemophilus influenzae assessed as reduction in microbial growth by CLSI based broth microdilution method; format: functional
Streptococcus pneumoniae [14] = assay: Antibacterial activity against Streptococcus pneumoniae assessed as reduction in microbial growth by CLSI based broth microdilution method; format: functional
Streptococcus pneumoniae [15] = assay: Antibacterial activity against penicillin-resistant Streptococcus pneumoniae assessed as reduction in microbial growth by CLSI based broth microdilution method; format: functional
Staphylococcus aureus [16] = assay: Antibacterial activity against methicillin-resistant Staphylococcus aureus assessed as reduction in microbial growth by CLSI based broth microdilution method; format: functional
Streptococcus pneumoniae [17] = assay: Antibacterial activity against levofloxacin-nonsusceptible Streptococcus pneumoniae assessed as reduction in microbial growth by CLSI based broth microdilution method; format: functional

IC50 (Topoisomerase IV): 300 nM
IC50 [1]: 200 nM
IC50 [2]: 1000 nM
MIC (Staphylococcus aureus [3]): 0.12 to 1 µg/mL
SMILES: COc1ccc2ncc(F)c([C@@H](O)CC[C@@H]3CCN(CCSc4cccs4)C[C@@H]3C(=O)O)c2c1

MIC (Escherichia coli [4]): 0.25 µg/mL
MIC (Staphylococcus aureus [5]): 0.25 µg/mL
SMILES: CN1CC(Oc2cccc(-c3cccc(CNCC[C@@H]4CN(c5ccc6c(n5)NC(=O)CO6)C(=O)O4)c3)n2)C1

SMILES: O=c1ccc2ncc(=O)n3c2n1C[C@H]3CN1CCC(NCc2cc3c(cn2)OCCC3)CC1 [GEPOTIDACIN]
MIC90 (Escherichia coli [6]): 2 µg/mL
MIC90 (Escherichia coli [7]): 2 µg/mL
MIC90 (Staphylococcus aureus [8]): 0.5 µg/mL
MIC90 (Escherichia coli [9]): 2 µg/mL
MIC90 (Staphylococcus aureus [10]): 0.5 µg/mL
MIC90 (Streptococcus pneumoniae [11]): 0.25 µg/mL
MIC90 (Staphylococcus aureus [12]): 0.5 µg/mL
MIC90 (Streptococcus pneumoniae [13]): 0.25 µg/mL
MIC90 (Neisseria gonorrhoeae): 0.25 µg/mL
MIC90 (Haemophilus influenzae): 1 µg/mL
MIC90 (Streptococcus pneumoniae [14]): 0.25 µg/mL
MIC90 (Streptococcus pneumoniae [15]): 0.25 µg/mL
MIC90 (Staphylococcus aureus [16]): 0.5 µg/mL
MIC90 (Streptococcus pneumoniae [17]): 0.25 µg/mL
